Data set [1] relates to fibroblast growth factor-dependent DNA synthesis. Particulars: relative to PDGF dependent DNA synthesis; cited from earlier work.
The test system of data set [2] is epidermal growth factor receptor. Particulars: cited from earlier work.
Data set [3] deals with sis-transfected NIH 3T3 cells. Particulars: cited from earlier work.
The test system of data set [4] is porcine aortic endothelial cells. Particulars: cited from earlier work.
The subject of data set [5] is porcine aorta endothelial cells (EC). Particulars: read-out: 50% inhibitory concentration, PDGF receptor kinase and PDGF dependent DNA synthesis; cited from earlier work.
The subject of data set [6] is DNA synthesis stimulated by insulin, by epidermal growth factor, or by a combination of both. Particulars: cited from earlier work.
A further data set relates to human PDGF α-receptor. Particulars: cited from earlier work.
A further data set relates to p60c-src(F527). Particulars: cited from earlier work.
The next data set concerns Swiss 3T3 cells. Particulars: read-out: 50% inhibitory concentration, PDGF receptor kinase and PDGF dependent DNA synthesis; cited from earlier work.
In data set [7] the test system is stem cell factor receptor (c-Kit). Particulars: cited from earlier work.
In data set [8] the test system is vascular endothelial growth factor receptor KDR. Particulars: cited from earlier work.
A further data set relates to human PDGF β-receptor. Particulars: cited from earlier work.
Data set [9] relates to src-transformed NIH 3T3 cells. Particulars: cited from earlier work.
Data set [10] deals with human internal mammary artery smooth muscle cells (IMA SMC). The experiment in a line: Inhibition of cell proliferation and recovery, human IMA SMC. The format is cell-based. From the text:
(§1) Smooth muscle cells (SMC) were obtained under aseptic conditions from porcine abdominal aortas, and human internal mammary arteries (IMA). Specimens from the operating room were transferred on ice to the tissue culture room. Each artery was cut open and the endothelial surface mechanically scraped. The vessels were then cut into 2 mm^2 fragments which were placed in culture dishes with Dulbecco's modified Eagle's medium (DMEM) supplemented with 15% (v/v) fetal calf serum (FCS), 100 u/ml penicillin, 100 μg/ml streptomycin, and 0.2M L-glutamine. The tissue fragments were then placed in an incubator at 37° C. under 9% CO2 atmosphere until SMC outgrowth was detected (typically within 3-7 days). […] For experiments testing the effect of tyrphostins on growth inhibition and recovery (see below), SMC from passages 1-3 were replated in 15 mm wells pretreated with 3 μg/cm^2 fibronectin (Biological Industries, Kibbutz Beit Haemek, Israel) at 15,000 cells/well.
Inhibition of cell proliferation and recovery: Monolayer cell growth inhibition and recovery experiments were repeated 3 or 4 times. Each experiment was performed in triplicate. Approximately 15,000 cells (SMC or EC) in 1 ml of culture medium supplemented with 15% FCS were seeded on day 0 in 15 mm-wells precoated with fibronectin. Cultures were treated with a tyrphostin (10 μM) dissolved in 0.1% DMSO on days 1 and 3. On day 6, cultures were washed and the cells allowed to recover. Typically cells were counted on days 3 and 5 for inhibition, and on days 7, 10 and 15 for recovery, other schedules were also employed as reported below. The medium supplemented with serum (M-199 with ECGS for EC, and DMEM for SMC) was changed every other day throughout the experiment.
FIG. 9 presents the maximal inhibitory and recovery effects on human IMA SMC growth inflicted by 10 or 25 μM of AG1851 and AG1295. Cells were grown in the presence of the specified tyrphostins and were counted after seven days in culture. On day 7 the cultures were washed and the cells allowed to recover. Seven days later they were counted for recovery. The bar graph show the maximal inhibition and the recovery in each experiment and for controls.

Data set [11] concerns porcine endothelial cells (EC). Put plainly: Inhibition of cell proliferation and recovery, porcine EC. The format is cell-based. Particulars: for inhibition at 10 µM: Sus scrofa, Endothelial cell. From the text: Endothelial cells (EC) were isolated from porcine carotid arteries. Using aseptic procedure, both common carotid arteries were isolated, and the distal end of each artery was cannulated through an arteriotomy and ligated. The arteries were then perfused with phosphate buffered saline (PBS) and the proximal end ligated isolating a 5-7 cm long blood-free portion of the artery. The isolated portion of each artery was filled with PBS containing calcium and magnesium and 0.1% collagenase (Boehringer Manneheim, Germany). The segments were excised and incubated for 10 min at 37° C. in sterile bottles containing PBS. […] Cells were seeded on fibronectin-coated dishes at a seeding density of 15,000 cells/well and incubated at 37° C. in 9% CO2. ECGS (25 μg/ml) was added every other day until confluence was observed, typically within 6-8 days.
(§2) Inhibition of cell proliferation and recovery: Monolayer cell growth inhibition and recovery experiments were repeated 3 or 4 times. Each experiment was performed in triplicate. […] Cultures were treated with a tyrphostin (10 μM) dissolved in 0.1% DMSO on days 1 and 3. On day 6, cultures were washed and the cells allowed to recover. Typically cells were counted on days 3 and 5 for inhibition, and on days 7, 10 and 15 for recovery, other schedules were also employed as reported below.

Data set [12] concerns porcine aortic smooth muscle cells (SMC). Put plainly: Inhibition of cell proliferation and recovery, porcine SMC. Particulars: for inhibition at 10 µM: Sus scrofa. In kind it is cell-based. On the procedure: as §1, with “The vessels were then cut into 2 mm^2 fragments which were placed in culture dishes with Dulbecco's modified Eagle's medium (DMEM) supplemented with 15% (v/v) fetal calf serum (FCS), 100 u/ml penicillin, 100 μg/ml streptomycin, and 0.2M L-glutamine.” left out
as §2

For another data set, the target named is T1, PDGF β-receptor (Sus scrofa, UniProt F1RL75).
T1 construct: PDGF-BB stimulated; immunoprecipitated with PDGF beta-receptor specific antiserum R3
The experiment in a line: PDGF induced PDGFR autophosphorylation in intact SMC cells. In kind it is cell-based. Particulars: porcine arterial SMC. As to the method: Effect of tyrphostins on PDGF induced PDGFR autophosphorylation in intact SMC cells: Subconfluent porcine arterial smooth muscle cells, cultivated in Dulbecco's modified Eagle's medium (DMEM) supplemented with 15% fetal calf serum (FCS), were synchronized for 20 hours in a medium containing 2% FCS. […] After stimulation, the cells were solubilized in Nonidet P-40 (1%) containing lysis buffer.
The analysis of PDGF p-receptor phosphorylation was performed as follows. Cell lysates were subjected to immunoprecipitation using the PDGF β-receptor specific antiserum R3 [5]. The percipitates were subjected to polyacrylamide (7.5%) gel electrophoresis in presence of sodium deducyl sulfate (SDS-PAGE) and were thereafter blotted onto a nitrocellulose membrane (Hybond C-EXTRA, Amersham). Phosphorylated proteins were detected by immunoblotting using the horseradish-peroxidase conjugated phosphotyrosine antibody RC20H (Transduction Laboratories), followed by chemoluminescence-based detection (ECL, Amersham) and autoradiography.
Detection of receptor proteins was performed as follows. Cell lysates were subjected to immunoprecipitation using the PDGF β-receptor specific antiserum R3 [5], as described above, and the percipitates washed three times and thereafter subjected to SDS-PAGE (7.5%) and blotting onto a nitrocellulose membrane (Hybond C-EXTRA, Amersham). Receptor proteins were detected by immunoblotting using the horseradish-peroxidase conjugated donkey anti-rabbit antibody (Amersham), followed by chemoluminescence-based detection (ECL, Amersham) and autoradiography.

The test system of another data set is neointimal formation. Particulars: controlled local delivery; rat carotid balloon injury model; cited from earlier work.

“Also recorded” adds a separate entry of the source. Like-named read-outs stand apart in the source and are kept apart here.

T1 sequence (F1RL75 109-1181): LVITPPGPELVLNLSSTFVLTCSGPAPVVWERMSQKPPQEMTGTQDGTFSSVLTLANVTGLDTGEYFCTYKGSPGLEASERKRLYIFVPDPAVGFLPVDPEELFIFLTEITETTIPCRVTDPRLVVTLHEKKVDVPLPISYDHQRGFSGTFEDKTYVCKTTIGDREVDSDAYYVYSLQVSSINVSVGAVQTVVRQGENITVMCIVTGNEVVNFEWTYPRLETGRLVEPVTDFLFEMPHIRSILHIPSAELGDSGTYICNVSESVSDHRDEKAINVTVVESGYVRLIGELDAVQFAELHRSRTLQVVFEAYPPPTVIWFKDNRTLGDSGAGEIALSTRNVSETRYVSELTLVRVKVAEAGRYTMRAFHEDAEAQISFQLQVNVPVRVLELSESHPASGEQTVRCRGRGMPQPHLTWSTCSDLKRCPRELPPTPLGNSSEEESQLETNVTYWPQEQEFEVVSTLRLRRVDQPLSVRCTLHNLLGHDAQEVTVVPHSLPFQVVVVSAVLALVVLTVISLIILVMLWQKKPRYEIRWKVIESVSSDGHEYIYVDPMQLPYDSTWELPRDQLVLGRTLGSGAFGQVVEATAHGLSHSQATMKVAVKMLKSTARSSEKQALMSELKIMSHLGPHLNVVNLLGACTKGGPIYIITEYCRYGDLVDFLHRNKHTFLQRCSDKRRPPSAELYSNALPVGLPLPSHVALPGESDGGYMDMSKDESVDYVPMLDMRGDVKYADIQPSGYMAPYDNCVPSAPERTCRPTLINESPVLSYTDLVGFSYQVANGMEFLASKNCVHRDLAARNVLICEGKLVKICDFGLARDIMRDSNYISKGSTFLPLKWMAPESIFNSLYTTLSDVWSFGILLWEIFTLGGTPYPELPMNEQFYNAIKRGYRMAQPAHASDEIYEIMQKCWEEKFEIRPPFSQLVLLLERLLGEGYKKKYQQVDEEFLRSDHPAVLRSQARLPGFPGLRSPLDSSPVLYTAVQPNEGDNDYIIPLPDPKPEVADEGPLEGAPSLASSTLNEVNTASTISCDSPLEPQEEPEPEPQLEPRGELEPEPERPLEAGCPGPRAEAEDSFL

For the compound `COc1cc2ncc(-c3ccccc3)nc2cc1OC` [AG1296], the “blocking effect on fibroblast growth factor-dependent DNA synthesis” value in [1] was “over an order of magnitude weaker blocking effect”. Also, the “effect on epidermal growth factor receptor autophosphorylation” value in data set [2] is listed as “no effect”. The “effect on transformed phenotype of sis-transfected NIH 3T3 cells” value in data set [3] is “reverses the transformed phenotype”. Moreover, the “effect on DNA synthesis induced by vascular endothelial growth factor” value in data set [4] was “no effect”. In addition, the results for the IC50 (in data set [5]; in the data set with Swiss 3T3 cells) were < 1000 nM and < 5 µM, respectively. Moreover, in data set [6], the “effect on DNA synthesis stimulated by insulin, by epidermal growth factor, or by a combination of both” value is “weak effects”. For the same compound, the “inhibition of signalling of human PDGF α-receptor” value in the data set with human PDGF α-receptor is on record as “potently inhibits”. Further, the “effect on activity of the kinase p60c-src(F527) immunoprecipitated from src-transformed NIH 3T3 cells” value in the data set with p60c-src(F527) is “no effect”. In addition, in [7], the “inhibition of signalling of stem cell factor receptor (c-Kit)” value is “potently inhibits”. Further, the “effect on autophosphorylation of KDR” value in [8] is recorded as “no effect”. Further, the “inhibition of signalling of human PDGF β-receptor” value in the data set with human PDGF β-receptor was “potently inhibits”. For the same compound, the “effect on src-transformed NIH 3T3 cells” value in data set [9] is “no effect”.
`Cc1cc2ncc(-c3ccccc3)nc2cc1C` [AG1295, reference compound]: the “reversibility of the effect on IMA SMC upon removal of the tyrphostin” value in data set [10] (25 μM) is reported as “completely reversible”. The inhibition at 25 µM in data set [10] (Homo sapiens, 120 h, read-out: mean reduction / inhibition of IMA SMC proliferation compared to untreated or DMSO-treated cells) amounted to 48%. The “blocking effect on fibroblast growth factor-dependent DNA synthesis” value in data set [1] is reported as “over an order of magnitude weaker blocking effect”. Further, the “reversibility of the inhibitory effect on EC” value in data set [11] is listed as “completely reversible”. Also, the inhibition at 10 µM is ~10% in data set [11] (72 h, by day 3, read-out: mean reduction of EC growth compared to controls); 13.5% in data set [11] (120 h, by day 5, read-out: reduction of EC growth compared to controls); 22% in data set [11] (FIG. 8 experiment, 10 μM, read-out: maximal inhibitory effect on porcine EC proliferation); 46% in [12] (72 h, read-out: mean reduction in SMC count compared to DMSO treated control cells, 10 μM, by day 3); 78% in data set [12] (120 h, read-out: reduction in SMC count / inhibition of SMC growth over control, 10 μM, by day 5 (day given for AG1295 and AG1992)); 65% in data set [12] (read-out: maximal inhibitory effect on porcine SMC proliferation, FIG. 6 experiment, 10 μM). The inhibition at 10 µM amounted to 81% in data set [12] (read-out: maximal inhibitory effect on porcine SMC proliferation, FIG. 7 experiment, 10 μM) and 78% in data set [12] (read-out: mean reduction in SMC count compared to control cells (maximal inhibition in SMC growth), Table 2, 10 μM). The “inhibitory effect on porcine SMC growth (in words)” value in data set [12] (10 μM, FIGS. 3-7) is on record as “very potent growth inhibition effect; also recorded: highly effective in blocking proliferation; also recorded: very effective proliferation inhibitors”. The “toxicity on SMC” value in data set [12] (10 μM, porcine SMC) is “low lasting toxicity”. Also, in [12] (porcine SMC, cultures washed, cells allowed to recover), the “reversibility of the inhibitory effect / recovery of SMC growth after washout” value is on record as “completely reversible”. The “effect on epidermal growth factor receptor autophosphorylation” value in [2] is reported as “no effect”. For the same compound, the IC50 in data set [5] is < 1000 nM; in the data set on Swiss 3T3 cells, < 5 µM. Further, the “effect on DNA synthesis stimulated by insulin, by epidermal growth factor, or by a combination of both” value in [6] is given as “weak effects”. Also, at PDGF β-receptor, the “level of PDGF β-receptor protein present in the cells” value was “without affecting the level”. Also, the “inhibition of PDGF-BB induced PDGF β-receptor tyrosine-phosphorylation” value against PDGF β-receptor (tyrphostin 10 μM, 60 min preincubation, PDGF-BB 100 ng/ml) is “completely inhibited”.
As to `CC(C)(C)c1cc(C=C(C#N)C#N)cc(C(C)(C)C)c1O` [AG17], the “inhibition of neointimal formation” value in the data set with neointimal formation is reported as “effectively inhibits neointimal formation”.
